Assay results published in US9718788B2, “Heteroaryl compounds useful as inhibitors of E1 activating enzymes” (MILLENNIUM PHARMACEUTICALS, INC., priority 2006, dated 2017).

Target: T1, recombinant human NAE enzyme (Homo sapiens, UniProt Q8TBC4)
T1 construct: His (N); made in house; host or cells: Sf9 insect cells (baculovirus, Bac-to-Bac)
T1 sequence (Q8TBC4 1-463): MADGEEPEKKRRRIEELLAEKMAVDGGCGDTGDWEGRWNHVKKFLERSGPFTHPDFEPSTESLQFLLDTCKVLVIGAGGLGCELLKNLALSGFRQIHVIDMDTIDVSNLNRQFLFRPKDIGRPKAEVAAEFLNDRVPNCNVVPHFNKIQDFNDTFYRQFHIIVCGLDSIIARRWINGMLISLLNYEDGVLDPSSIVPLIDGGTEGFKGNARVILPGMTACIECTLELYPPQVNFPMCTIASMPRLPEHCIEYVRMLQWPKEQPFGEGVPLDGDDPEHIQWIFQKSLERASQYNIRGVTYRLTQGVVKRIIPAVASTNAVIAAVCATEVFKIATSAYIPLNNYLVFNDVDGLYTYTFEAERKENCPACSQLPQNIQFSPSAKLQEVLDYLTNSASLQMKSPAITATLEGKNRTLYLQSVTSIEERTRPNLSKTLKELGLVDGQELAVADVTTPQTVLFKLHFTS
T1 sequence (Q13564 1-534 partner): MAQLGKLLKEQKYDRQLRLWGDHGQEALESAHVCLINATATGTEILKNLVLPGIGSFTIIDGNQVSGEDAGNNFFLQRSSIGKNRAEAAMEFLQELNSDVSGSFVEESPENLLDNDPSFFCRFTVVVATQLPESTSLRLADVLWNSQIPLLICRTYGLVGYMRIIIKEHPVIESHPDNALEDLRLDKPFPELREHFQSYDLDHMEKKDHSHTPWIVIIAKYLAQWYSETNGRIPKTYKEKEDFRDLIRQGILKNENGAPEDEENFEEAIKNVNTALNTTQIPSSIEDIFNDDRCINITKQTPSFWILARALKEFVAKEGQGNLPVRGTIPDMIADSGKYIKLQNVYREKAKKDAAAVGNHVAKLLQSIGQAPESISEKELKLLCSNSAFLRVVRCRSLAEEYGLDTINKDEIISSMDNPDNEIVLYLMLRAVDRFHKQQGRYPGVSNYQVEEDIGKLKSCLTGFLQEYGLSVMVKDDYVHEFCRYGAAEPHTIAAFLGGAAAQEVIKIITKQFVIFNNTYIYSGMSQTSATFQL
Assay: Nedd8-Activating Enzyme (NAE) HTRF Assay
Assay type: biochemical
Details: 20 μM ATP
How it was run: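 Recombinant human NAE (NAEα/His-NAEβ from Sf9 cells) at 0.20 nM with 20 μM ATP, 0.01 μM Ubc12-GST and 0.075 μM Nedd8-Flag in HEPES pH 7.5, 105 min at 24° C. EDTA stop; Eu-anti-FLAG/APC-anti-GST HTRF read after 1 h.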

| SMILES | IC50 (bound given in μM) | IC50 (bound given in nM) |
| --- | --- | --- |
| NS(=O)(=O)OC[C@@H]1C[C@@H](O)[C@H](Nc2cc(N[C@H]3CCc4ccccc43)ncn2)C1 [Compound I-76, [(1S,3R,4R)-3-({6-[(1S)-2,3-dihydro-1H-inden-1-ylamino]pyrimidin-4-yl}amino)-4-hydroxycyclopentyl]methyl sulfamate] | > 10 µM |  |
| CO[C@H]1c2ccccc2C[C@H]1Oc1cc(O[C@@H]2C[C@@H](COS(N)(=O)=O)[C@@H](O)C2)ncn1 [Compound I-77, {(1S,2S,4R)-2-hydroxy-4-[(6-{[(1S,2R)-1-methoxy-2,3-dihydro-1H-inden-2-yl]oxy}-pyrimidin-4-yl)oxy]cyclopentyl}methyl sulfamate] | < 10 µM | > 0.5 µM |
| CO[C@@H]1c2ccccc2C[C@@H]1Oc1cc(O[C@@H]2C[C@@H](COS(N)(=O)=O)[C@@H](O)C2)ncn1 [Compound I-79, {(1S,2S,4R)-2-hydroxy-4-[(6-{[(1R,2S)-1-methoxy-2,3-dihydro-1H-inden-2-yl]oxy}-pyrimidin-4-yl)oxy]cyclopentyl}methyl sulfamate] | < 10 µM | > 0.5 µM |
| NS(=O)(=O)OC[C@@H]1C[C@@H](Oc2ncnc3c2ncn3Cc2ccccc2)C[C@@H]1O [Compound I-80, {(1S,2S,4R)-4-[(9-benzyl-9H-purin-6-yl)oxy]-2-hydroxycyclopentyl}methyl sulfamate] | < 10 µM | > 0.5 µM |
| NS(=O)(=O)OC[C@@H]1C[C@@H](Nc2cc(CCc3ccccc3)ncn2)C[C@@H]1O [Compound I-81, ((1S,2S,4R)-2-hydroxy-4-{[6-(2-phenylethyl)pyrimidin-4-yl]amino}cyclopentyl)methyl sulfamate] | < 10 µM | > 0.5 µM |
| CO[C@H]1Cc2ccccc2[C@H]1Nc1cc(O[C@@H]2C[C@@H](CNS(N)(=O)=O)[C@@H](O)C2)ncn1 [Compound I-82, N-({(1S,2S,4R)-2-hydroxy-4-[(6-{[(1R,2S)-2-methoxy-2,3-dihydro-1H-inden-1-yl]amino}pyrimidin-4-yl)oxy]cyclopentyl}methyl)sulfamide] |  | ≤ 0.5 µM |
| CO[C@H]1Cc2ccccc2[C@H]1Nc1ncnc(O[C@@H]2C[C@@H](COS(N)(=O)=O)[C@@H](O)C2)c1F [Compound I-83, {(1S,2S,4R)-4-[(5-fluoro-6-{[(1R,2S)-2-methoxy-2,3-dihydro-1H-inden-1-yl]amino}pyrimidin-4-yl)oxy]-2-hydroxycyclopentyl}methyl sulfamate] |  | ≤ 0.5 µM |
| NS(=O)(=O)OC[C@@H]1C[C@@H](Nc2ncnc3nc(-c4cccc5cccnc45)[nH]c23)C[C@@H]1O [Compound I-84, {(1S,2S,4R)-2-hydroxy-4-[(8-quinolin-8-yl-7H-purin-6-yl)amino]cyclopentyl}methyl sulfamate] |  | ≤ 0.5 µM |
| NS(=O)(=O)OC[C@H]1C[C@@H](Nc2cc(CCc3ccccc3)ncn2)[C@H](O)[C@@H]1O [Compound I-86, ((1R,2R,3S,4R)-2,3-dihydroxy-4-{[6-(2-phenylethyl)pyrimidin-4-yl]amino}cyclopentyl)-methyl sulfamate] | < 10 µM | > 0.5 µM |
| NS(=O)(=O)OC[C@@H]1C[C@@H](Oc2ncnc3[nH]c(-c4cccc5ccccc45)nc23)C[C@@H]1O [Compound I-87, ((1S,2S,4R)-2-hydroxy-4-{[8-(1-naphthyl)-9H-purin-6-yl]oxy}cyclopentyl)methyl sulfamate] |  | ≤ 0.5 µM |
| NS(=O)(=O)OC[C@@H]1C[C@@H](Nc2ncnc3[nH]c(Cc4ccccc4)nc23)C[C@@H]1O [Compound I-88, {(1S,2S,4R)-4-[(8-benzyl-9H-purin-6-yl)amino]-2-hydroxycyclopentyl}methyl sulfamate] |  | ≤ 0.5 µM |
| NS(=O)(=O)OC[C@@H]1C[C@@H](Oc2cc(OCc3ccc(Cl)cc3)ncn2)C[C@@H]1O [Compound I-89, [(1S,2S,4R)-4-({6-[(4-chlorobenzyl)oxy]pyrimidin-4-yl}oxy)-2-hydroxycyclopentyl]methyl sulfamate] | > 10 µM |  |
| NS(=O)(=O)OC[C@@H]1C[C@@H](Nc2ncnc3oc(-c4ccccc4)nc23)C[C@@H]1O [Compound I-90, {(1S,2S,4R)-2-hydroxy-4-[(2-phenyl[1,3]oxazolo[5,4-d]pyrimidin-7-yl)amino]cyclopentyl}methyl sulfamate] |  | ≤ 0.5 µM |
| NS(=O)(=O)OC[C@H]1C[C@@H](Nc2cc(N[C@H]3CCC[C@@H]3OCc3ccccc3)ncn2)[C@H](O)[C@@H]1O [Compound I-92, {(1R,2R,3S,4R)-4-[(6-{[(1S,2S)-2-(benzyloxy)cyclopentyl]amino}pyrimidin-4-yl)amino]-2,3-dihydroxycyclopentyl}methyl sulfamate] | < 10 µM | > 0.5 µM |
| COc1cccc(OC)c1-c1nc2c(N[C@@H]3C[C@@H](COS(N)(=O)=O)[C@@H](O)C3)ncnc2[nH]1 [Compound I-93, ((1S,2S,4R)-4-{[8-(2,6-dimethoxyphenyl)-9H-purin-6-yl]amino}-2-hydroxycyclopentyl)methyl sulfamate] |  | ≤ 0.5 µM |
| NS(=O)(=O)OC[C@@H]1C[C@@H](Oc2ccnc(N[C@H]3CCc4ccccc43)c2)C[C@@H]1O [Compound I-94, [(1S,2S,4R)-4-({2-[(1S)-2,3-dihydro-1H-inden-1-ylamino]pyridin-4-yl}oxy)-2-hydroxycyclopentyl]methyl sulfamate] | < 10 µM | > 0.5 µM |
| CO[C@H]1Cc2ccccc2[C@H]1Oc1cc(O[C@@H]2C[C@@H](COS(N)(=O)=O)[C@@H](O)C2)ncn1 [Compound I-96, {(1S,2S,4R)-2-hydroxy-4-[(6-{[(1R,2S)-2-methoxy-2,3-dihydro-1H-inden-1-yl]oxy}-pyrimidin-4-yl)oxy]cyclopentyl}methyl sulfamate] | < 10 µM | > 0.5 µM |
| NS(=O)(=O)OC[C@@H]1C[C@@H](Oc2ccncn2)C[C@@H]1O [Compound I-97, [(1S,2S,4R)-2-hydroxy-4-(pyrimidin-4-yloxy)cyclopentyl]methyl sulfamate] | > 10 µM |  |
| CO[C@@H]1Cc2ccccc2[C@@H]1Oc1cc(O[C@@H]2C[C@@H](COS(N)(=O)=O)[C@@H](O)C2)ncn1 [Compound I-98, {(1S,2S,4R)-2-hydroxy-4-[(6-{[(1S,2R)-2-methoxy-2,3-dihydro-1H-inden-1-yl]oxy}-pyrimidin-4-yl)oxy]cyclopentyl}methyl sulfamate] | < 10 µM | > 0.5 µM |
| COc1cccc(-c2nc3c(N[C@@H]4C[C@@H](COS(N)(=O)=O)[C@@H](O)C4)ncnc3[nH]2)c1 [Compound I-99, ((1S,2S,4R)-2-hydroxy-4-{[8-(3-methoxyphenyl)-9H-purin-6-yl]amino}cyclopentyl)methyl sulfamate] |  | ≤ 0.5 µM |
| CC1(C)Cc2cccc(-c3nc4c(N[C@@H]5C[C@@H](COS(N)(=O)=O)[C@@H](O)C5)ncnc4[nH]3)c2O1 [Compound I-100, ((1S,2S,4R)-4-{[8-(2,2-dimethyl-2,3-dihydro-1-benzofuran-7-yl)-9H-purin-6-yl]amino}-2-hydroxycyclopentyl)methyl sulfamate] |  | ≤ 0.5 µM |
| Cc1cccc(S(=O)(=O)c2nc3c(O[C@@H]4C[C@@H](COS(N)(=O)=O)[C@@H](O)C4)ncnc3[nH]2)c1 [Compound I-101, [(1S,2S,4R)-2-hydroxy-4-({8-[(3-methylphenyl)sulfonyl]-9H-purin-6-yl}oxy)cyclopentyl]methyl sulfamate] |  | ≤ 0.5 µM |
| NS(=O)(=O)OC[C@@H]1C[C@@H](Nc2ncnc3nc(-c4ccc(OCc5ccccc5)cc4)[nH]c23)C[C@@H]1O [Compound I-102, [(1S,2S,4R)-4-({8-[4-(benzyloxy)phenyl]-7H-purin-6-yl}amino)-2-hydroxycyclopentyl]methyl sulfamate] |  | ≤ 0.5 µM |
| CN(C)c1ccc(-c2nc3ncnc(O[C@@H]4C[C@@H](COS(N)(=O)=O)[C@@H](O)C4)c3[nH]2)c2ccccc12 [Compound I-103, [(1S,2S,4R)-4-({8-[4-(dimethylamino)-1-naphthyl]-7H-purin-6-yl}oxy)-2-hydroxycyclopentyl]methyl sulfamate] |  | ≤ 0.5 µM |
| OC[C@@H]1C[C@@H](Nc2ncnc3[nH]c(-c4cccc5c4CCCC5)nc23)C[C@@H]1O [Compound I-110, (1S,2S,4R)-2-(hydroxymethyl)-4-{[8-(5,6,7,8-tetrahydronaphthalen-1-yl)-9H-purin-6-yl]-amino}cyclopentanol] | < 10 µM | > 0.5 µM |
| NS(=O)(=O)OC[C@@H]1C[C@@H](Nc2ncnc3[nH]c(-c4ccc(Cl)cc4)nc23)C[C@@H]1O [Compound I-111, ((1S,2S,4R)-4-{[8-(4-chlorophenyl)-9H-purin-6-yl]amino}-2-hydroxycyclopentyl)methyl sulfamate] |  | ≤ 0.5 µM |
